Reference: patent US20250282768A1 (Janssen Pharmaceutica NV, priority 2022, published 2025)

These compounds were tested on p-IKKa levels in L363 (NIK translocated multiple myeloma) cells (assay: Assay 2: Effect of compounds on p-IKKa levels in L363 (NIK translocated multiple myeloma) cells). Settings: Homo sapiens, L-363, 6 h, read-out: Assay 2 IC50 (nM), p-IKKa (Ser 176/180) in BAFF stimulated L363 cells with MG132, 6 h; average if tested more than once.
Assay type: cell-based
Procedure, shortened: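 Read-out is p-IKKa Ser176/180 by AlphaLISA SureFire in lysates. Cells were BAFF-primed (250 ng/ml) overnight or left unstimulated, then exposed 6 h at 37 °C to compound with MG132 (10 μM), 0.3% DMSO. IC50 from sigmoidal curve fit, normalized between stimulated and unstimulated controls.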
In the case of CN1CC[C@@](O)(c2cc(-c3cccc(-c4ccnc(Nc5nccn5C)n4)n3)no2)C1=O [Example 398, (R)-3-Hydroxy-1-methyl-3-(3-(6-(2-((1-methyl-1H-imidazol-2-yl)amino)pyrimidin-4-yl)pyridin-2-yl)isoxazol-5-yl)pyrrolidin-2-one], the IC50 is reported as over 500 nM.
In the case of CN1CC[C@@](O)(c2cc(-c3cccc(-c4ccnc(Nc5cn(CCF)cn5)n4)n3)no2)C1=O [Example 399, (R)-3-(3-(6-(2-((1-(2-Fluoroethyl)-1H-imidazol-4-yl)amino)pyrimidin-4-yl)pyridin-2-yl)isoxazol-5-yl)-3-hydroxy-1-methylpyrrolidin-2-one], the IC50 is reported as under 50 nM.
Work on CCn1cc(Nc2nccc(-c3cccc(-n4cc([C@]5(O)CCN(C)C5=O)nn4)n3)n2)c(C)n1 [Example 402, (R)-3-(1-(6-(2-((1-Ethyl-3-methyl-1H-pyrazol-4-yl)amino)pyrimidin-4-yl)pyridin-2-yl)-1H-1,2,3-triazol-4-yl)-3-hydroxy-1-methylpyrrolidin-2-one] yielded an IC50 of under 50 nM.
For CN1CC[C@@](O)(c2cn(-c3cccc(-c4ccnc(Nc5cnn(CC(F)(F)F)c5)n4)n3)nn2)C1=O [Example 403, (R)-3-Hydroxy-1-methyl-3-(1-(6-(2-((1-(2,2,2-trifluoroethyl)-1H-pyrazol-4-yl)amino)pyrimidin-4-yl)pyridin-2-yl)-1H-1,2,3-triazol-4-yl)pyrrolidin-2-one], the IC50 was under 50 nM.
In the case of CN1CC[C@@](O)(c2cc(-c3cccc(-c4ccnc(Nc5cnn6c5CCCC6)n4)n3)on2)C1=O [Example 406, (R)-3-Hydroxy-1-methyl-3-(5-(6-(2-((4,5,6,7-tetrahydropyrazolo[1,5-a]pyridin-3-yl)amino)pyrimidin-4-yl)pyridin-2-yl)isoxazol-3-yl)pyrrolidin-2-one], the IC50 is reported as under 50 nM.
With CN1CC[C@@](O)(c2cc(-c3cccc(-c4ccnc(Nc5cnn(C)c5Cl)n4)n3)on2)C1=O [Example 407, (R)-3-(5-(6-(2-((5-Chloro-1-methyl-1H-pyrazol-4-yl)amino)pyrimidin-4-yl)pyridin-2-yl)isoxazol-3-yl)-3-hydroxy-1-methylpyrrolidin-2-one] the IC50 was under 50 nM.
Cc1cc(Nc2nccc(-c3cccc(-c4cc([C@@]5(O)C(=O)N(C)CC5(F)F)on4)n3)n2)ccn1 [Example 408, (R)-4,4-Difluoro-3-hydroxy-1-methyl-3-(3-(6-(2-((2-methylpyridin-4-yl)amino)pyrimidin-4-yl)pyridin-2-yl)isoxazol-5-yl)pyrrolidin-2-one] showed an IC50 of under 50 nM.
CN1CC(F)(F)[C@@](O)(c2cc(-c3cccc(-c4ccnc(Nc5cnn(C)c5Cl)n4)n3)no2)C1=O [Example 409] gave an IC50 of under 50 nM.
Work on CCn1ccc(Nc2nccc(-c3cccc(-c4cc([C@]5(O)CCN(C)C5=O)on4)n3)n2)n1 [Example 410, (R)-3-(3-(6-(2-((1-Ethyl-1H-pyrazol-3-yl)amino)pyrimidin-4-yl)pyridin-2-yl)isoxazol-5-yl)-3-hydroxy-1-methylpyrrolidin-2-one] yielded an IC50 of under 50 nM.
In the case of CN1CC[C@@](O)(c2cc(-c3cccc(-c4ccnc(Nc5cc(OC(F)F)n(C)n5)n4)c3)no2)C1=O [Example 412, (R)-3-(3-(3-(2-((5-(Difluoromethoxy)-1-methyl-1H-pyrazol-3-yl)amino)pyrimidin-4-yl)phenyl)isoxazol-5-yl)-3-hydroxy-1-methylpyrrolidin-2-one], the IC50 is reported as 50 to 500 nM.
For CN1CC[C@@](O)(c2cc(-c3cccc(-c4ccnc(Nc5cn(CC(F)F)nc5OC5CC5)n4)c3)no2)C1=O [Example 413, (R)-3-(3-(3-(2-((3-Cyclopropoxy-1-(2,2-difluoroethyl)-1H-pyrazol-4-yl)amino)pyrimidin-4-yl)phenyl)isoxazol-5-yl)-3-hydroxy-1-methylpyrrolidin-2-one], the IC50 was 50 to 500 nM.
In the case of CN1CC[C@@](O)(c2cc(-c3cccc(-c4ccnc(Nc5cc(N)n(C)n5)n4)c3)no2)C1=O [Example 414, (R)-3-(3-(3-(2-((5-Amino-1-methyl-1H-pyrazol-3-yl)amino)pyrimidin-4-yl)phenyl)isoxazol-5-yl)-3-hydroxy-1-methylpyrrolidin-2-one], the IC50 is reported as over 500 nM.
CN1CC[C@@](O)(c2cc(-c3cccc(-c4ccnc(Nc5cn(C)nc5N)n4)c3)no2)C1=O [Example 415, (R)-3-(3-(3-(2-((3-Amino-1-methyl-1H-pyrazol-4-yl)amino)pyrimidin-4-yl)phenyl)isoxazol-5-yl)-3-hydroxy-1-methylpyrrolidin-2-one] showed an IC50 of over 500 nM.
CN1CC[C@@](O)(c2cc(-c3cccc(-c4ccnc(Nc5cc6n(n5)CCNC6)n4)c3)no2)C1=O [Example 416, (R)-3-Hydroxy-1-methyl-3-(3-(3-(2-((4,5,6,7-tetrahydropyrazolo[1,5-a]pyrazin-2-yl)amino)pyrimidin-4-yl)phenyl)isoxazol-5-yl)pyrrolidin-2-one] was tested, and the IC50 was over 500 nM.
In the case of CN1CC[C@@](O)(c2cc(-c3cccc(-c4ccnc(N5CCn6nc(N)cc6C5)n4)c3)no2)C1=O [Example 417, (R)-3-(3-(3-(2-(2-Amino-6,7-dihydropyrazolo[1,5-a]pyrazin-5(4H)-yl)pyrimidin-4-yl)phenyl)isoxazol-5-yl)-3-hydroxy-1-methylpyrrolidin-2-one], the IC50 is reported as over 500 nM.
Work on CN1CC[C@@](O)(c2cc(-c3cccc(-c4ccnc(Nc5nn(C)c6c5CNC6)n4)c3)no2)C1=O [Example 418, (R)-3-Hydroxy-1-methyl-3-(3-(3-(2-((1-methyl-1,4,5,6-tetrahydropyrrolo[3,4-c]pyrazol-3-yl)amino)pyrimidin-4-yl)phenyl)isoxazol-5-yl)pyrrolidin-2-one] yielded an IC50 of over 500 nM.
CN1CC[C@@](O)(c2cc(-c3cccc(-c4ccnc(Nc5cnn6c5CNCC6)n4)c3)no2)C1=O [Example 419, (R)-3-Hydroxy-1-methyl-3-(3-(3-(2-((4,5,6,7-tetrahydropyrazolo[1,5-a]pyrazin-3-yl)amino)pyrimidin-4-yl)phenyl)isoxazol-5-yl)pyrrolidin-2-one] was tested, and the IC50 was over 500 nM.
CN1CC[C@@](O)(c2cc(-c3cccc(-c4ccnc(Nc5nn(C)c6ccncc56)n4)c3)no2)C1=O [Example 420, (R)-3-Hydroxy-1-methyl-3-(3-(3-(2-((1-methyl-1H-pyrazolo[4,3-c]pyridin-3-yl)amino)pyrimidin-4-yl)phenyl)isoxazol-5-yl)pyrrolidin-2-one] showed an IC50 of over 500 nM.
Work on CN1CC[C@@](O)(c2cc(-c3cccc(-c4ccnc(Nc5nn(C)c6ncccc56)n4)c3)no2)C1=O [Example 421, (R)-3-Hydroxy-1-methyl-3-(3-(3-(2-((1-methyl-1H-pyrazolo[3,4-b]pyridin-3-yl)amino)pyrimidin-4-yl)phenyl)isoxazol-5-yl)pyrrolidin-2-one] yielded an IC50 of over 500 nM.
Compound CN1CC[C@@](O)(c2cc(-c3cccc(-c4ccnc(Nc5nn(C)c6nccnc56)n4)c3)no2)C1=O [Example 422, (R)-3-Hydroxy-1-methyl-3-(3-(3-(2-((1-methyl-1H-pyrazolo[3,4-b]pyrazin-3-yl)amino)pyrimidin-4-yl)phenyl)isoxazol-5-yl)pyrrolidin-2-one] has an IC50 of over 500 nM.
CN1CC[C@@](O)(c2cc(-c3cccc(-c4nc(Nc5cnn(C)c5)ncc4F)c3)no2)C1=O [Example 423, (R)-3-(3-(3-(5-Fluoro-2-((1-methyl-1H-pyrazol-4-yl)amino)pyrimidin-4-yl)phenyl)isoxazol-5-yl)-3-hydroxy-1-methylpyrrolidin-2-one] was tested, and the IC50 was over 500 nM.
Compound CN1CC[C@@](O)(c2cc(-c3cccc(-c4nc(Nc5nn(C)cc5C#N)ncc4F)c3)no2)C1=O [Example 424, (R)-3-((5-Fluoro-4-(3-(5-(3-hydroxy-1-methyl-2-oxopyrrolidin-3-yl)isoxazol-3-yl)phenyl)pyrimidin-2-yl)amino)-1-methyl-1H-pyrazole-4-carbonitrile] has an IC50 of over 500 nM.
Compound CN1CC[C@@](O)(c2cc(-c3cccc(-c4nc(Nc5ccn(C)n5)ncc4F)c3)no2)C1=O [Example 425, (R)-3-(3-(3-(5-Fluoro-2-((1-methyl-1H-pyrazol-3-yl)amino)pyrimidin-4-yl)phenyl)isoxazol-5-yl)-3-hydroxy-1-methylpyrrolidin-2-one] has an IC50 of over 500 nM.
Work on CN1CC[C@@](O)(c2cc(-c3cccc(-c4ccnc(Nc5ccn(C)n5)n4)c3F)no2)C1=O [Example 426, (R)-3-(3-(2-Fluoro-3-(2-((1-methyl-1H-pyrazol-3-yl)amino)pyrimidin-4-yl)phenyl)isoxazol-5-yl)-3-hydroxy-1-methylpyrrolidin-2-one] yielded an IC50 of over 500 nM.
With CN1CC[C@@](O)(c2cc(-c3cccc(-c4ccnc(Nc5cnn(C)c5)n4)c3F)no2)C1=O [Example 427, (R)-3-(3-(2-Fluoro-3-(2-((1-methyl-1H-pyrazol-4-yl)amino)pyrimidin-4-yl)phenyl)isoxazol-5-yl)-3-hydroxy-1-methylpyrrolidin-2-one] the IC50 was over 500 nM.
CN(C)Cc1cc(Nc2nccc(-c3cccc(-c4cc([C@]5(O)CCN(C)C5=O)on4)n3)n2)nn1C [Example 428, (R)-3-(3-(6-(2-((5-((Dimethylamino)methyl)-1-methyl-1H-pyrazol-3-yl)amino)pyrimidin-4-yl)pyridin-2-yl)isoxazol-5-yl)-3-hydroxy-1-methylpyrrolidin-2-one] was tested, and the IC50 was 50 to 500 nM.
CN1CC[C@@](O)(c2cc(-c3cccc(-c4ccnc(Nc5cc6n(n5)CCNC6)n4)n3)no2)C1=O [Example 430, (R)-3-Hydroxy-1-methyl-3-(3-(6-(2-((4,5,6,7-tetrahydropyrazolo[1,5-a]pyrazin-2-yl)amino)pyrimidin-4-yl)pyridin-2-yl)isoxazol-5-yl)pyrrolidin-2-one] was tested, and the IC50 was 50 to 500 nM.
CN1CC[C@@](O)(c2cc(-c3cccc(-c4ccnc(Nc5cc6n(n5)CCN(CC(F)(F)F)C6)n4)n3)no2)C1=O [Example 431, (R)-3-Hydroxy-1-methyl-3-(3-(6-(2-((5-(2,2,2-trifluoroethyl)-4,5,6,7-tetrahydropyrazolo[1,5-a]pyrazin-2-yl)amino)pyrimidin-4-yl)pyridin-2-yl)isoxazol-5-yl)pyrrolidin-2-one] showed an IC50 of 50 to 500 nM.
